{
  "source": "paper PMC8212708",
  "about": "(Clinical and Translational Science, 2021)",
  "data": [
    {"molecular_target": "T1, human glucose transporter-1 (hGLUT-1) (Homo sapiens, UniProt P11166)", "T1 sequence (P11166 1-492)": "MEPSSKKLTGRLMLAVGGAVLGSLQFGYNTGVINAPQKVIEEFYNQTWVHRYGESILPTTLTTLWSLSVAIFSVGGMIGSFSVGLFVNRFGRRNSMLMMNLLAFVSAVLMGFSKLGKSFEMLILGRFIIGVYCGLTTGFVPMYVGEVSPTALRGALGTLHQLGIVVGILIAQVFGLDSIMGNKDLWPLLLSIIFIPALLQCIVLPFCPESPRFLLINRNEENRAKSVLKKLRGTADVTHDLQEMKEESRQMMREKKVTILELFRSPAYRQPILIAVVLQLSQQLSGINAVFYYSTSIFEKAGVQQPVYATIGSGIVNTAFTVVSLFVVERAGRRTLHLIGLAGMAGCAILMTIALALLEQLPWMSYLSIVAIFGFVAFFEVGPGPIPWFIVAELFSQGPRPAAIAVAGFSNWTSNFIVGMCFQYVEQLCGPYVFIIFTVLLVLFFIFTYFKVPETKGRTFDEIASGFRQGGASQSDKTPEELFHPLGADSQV", "experiment": "inhibition of [3H]2-DG", "format": "cell-based", "conditions": "FaDu, read-out: % inhibition at 25 μM", "units": {"inhibition at 25 µM": "%"}, "values": [
      {"smiles": "C#Cc1cccc(Nc2ncnc3cc(OC)c(OCCCCCCC(=O)NO)cc23)c1", "note": "[CUDC-101]", "inhibition at 25 µM": "80 to 90"},
      {"smiles": "CC(C)c1cc(-c2n[nH]c(=O)n2-c2ccc3c(ccn3C)c2)c(O)cc1O", "note": "[Ganetespib]", "inhibition at 25 µM": "> 50"},
      {"smiles": "O=c1c(-c2ccc(O)cc2)coc2cc(O)cc(O)c12", "note": "[genistein]", "inhibition at 25 µM": "> 50"}
    ]}
  ]
}
